The values below come from patent US9120749B2, “Quinoline derivatives and MELK inhibitors containing the same” (ONCOTHERAPY SCIENCE, INC., priority 2010, dated 2015).

The target in experiment [1] is MELK (Homo sapiens, UniProt Q14680). Description: Kinase assay: MELK activity, phosphorylation of FITC-labeled histone H3 peptide measured by IMAP fluorescence polarization. The class given is biochemical. The settings on record: 50 micro-M ATP, FITC-labeled histone H3 peptide substrate, IMAP fluorescence polarization; read-out: IC50 (μM) (kinase assay). In a few lines: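 Fluorescence polarization was measured 0.5 h (room temperature) after quenching with threefold volume of progressive binding solution. Test compounds from 12.5 mM DMSO stocks were assayed at 1% DMSO.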
A general note: Polarisation of emitted light reports the rotation of a fluorescent probe.

Experiment [2] deals with HT-1197 cells. Description: Cell-based assay: anti-proliferative activity, Cell Counting Kit-8, 72 hours (HT-1197, negative control without MELK expression). The settings on record: Homo sapiens, HT1197, 72 h, HT1197 cells (negative control, no MELK expression), 72 hours. Here is the method:
(§1) To evaluate the expression status of MELK in several cell lines, western blot analysis was performed using crude cell lysate collected from those cells. Anti-MELK antibody (clone 31, BD Biosciences) was used to visualize the expression.
(§2) Active candidate inhibitors against MELK were evaluated for their target-specific cytotoxicity using T47D, A549, BT-549, and HT-1197 cells was used for negative control. 100 micro-L of cell suspension was seeded onto 96-well microtiter plate (ViewPlate-96FTC, PerkinElmer). The initial cell concentration of T47D, A549, BT-549, and HT-1197 were 3,000 cells/well, 2,000 cells/well and 2,500 cells/well, respectively. Cellular growth was determined using Cell Counting Kit-8 (DOJINDO) at 72 hours after the exposure of the candidate inhibitors. […] Accurate IC50 values were calculated as described previously.
A general note: Tetrazolium assays rely on reduction of a dye to a coloured formazan, in cell work by metabolically active cells.

Experiment [3] has as its system T47D cells. Description: Cell-based assay: anti-proliferative activity, Cell Counting Kit-8, 72 hours (T47D). The settings on record: Homo sapiens, T47D, 72 h. Here is the method:
as §1, §2

The subject of experiment [4] is A549 cells. Description: Cell-based assay: anti-proliferative activity, Cell Counting Kit-8, 72 hours (A549). The settings on record: Homo sapiens, A549, 72 h, 72 hours. Here is the method:
100 micro-L of cell suspension was seeded onto 96-well microtiter plate (ViewPlate-96FTC, PerkinElmer). The initial cell concentration of T47D, A549, BT-549, and HT-1197 were 3,000 cells/well, 2,000 cells/well and 2,500 cells/well, respectively. Cellular growth was determined using Cell Counting Kit-8 (DOJINDO) at 72 hours after the exposure of the candidate inhibitors. […] Accurate IC50 values were calculated as described previously.

For orientation: IC50 means the point on the concentration scale where inhibition reaches its midpoint.

MELK, sequence (Q14680 whole entry, looked up): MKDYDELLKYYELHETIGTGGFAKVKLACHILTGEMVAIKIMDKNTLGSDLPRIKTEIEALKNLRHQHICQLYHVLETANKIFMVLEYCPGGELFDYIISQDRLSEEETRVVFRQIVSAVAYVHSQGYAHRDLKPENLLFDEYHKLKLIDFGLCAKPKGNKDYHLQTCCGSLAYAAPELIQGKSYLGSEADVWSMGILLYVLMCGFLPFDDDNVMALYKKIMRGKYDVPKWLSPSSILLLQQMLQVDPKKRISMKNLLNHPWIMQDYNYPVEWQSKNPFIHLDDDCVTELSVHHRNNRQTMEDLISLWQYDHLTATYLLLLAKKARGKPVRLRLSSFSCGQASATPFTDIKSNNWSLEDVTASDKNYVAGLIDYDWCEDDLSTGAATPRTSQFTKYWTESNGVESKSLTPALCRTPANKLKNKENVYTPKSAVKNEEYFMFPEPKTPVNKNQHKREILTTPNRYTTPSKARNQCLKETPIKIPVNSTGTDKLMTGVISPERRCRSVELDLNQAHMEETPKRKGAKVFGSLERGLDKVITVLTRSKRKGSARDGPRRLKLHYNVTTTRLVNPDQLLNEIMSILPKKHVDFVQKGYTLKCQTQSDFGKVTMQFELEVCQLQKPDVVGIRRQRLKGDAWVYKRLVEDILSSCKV

Take `O=C(c1cnc2ccc(-c3cc(Cl)c(O)c(Cl)c3)cc2c1-c1ccc(CN2CCCC2)cc1)C1CC1` [Example 452]: the concentration for half-maximal inhibition (IC50) turned out to be 0.0026 µM in experiment [1], 10 µM in experiment [2], 0.55 µM in experiment [3] and 1.6 µM in experiment [4].
In the same order, the values of `CN(C)C[C@H]1CC[C@H](Nc2c(S(C)(=O)=O)cnc3ccc(-c4ccc(O)c(Cl)c4)cc23)CC1` [Example 424] are 0.013 µM, 1.1 µM, 0.43 µM and 0.79 µM.
Take `COc1cc(-c2ccc3ncc(C#N)c(N4CCC(CN5CCCC5)CC4)c3c2)cc(Cl)c1O` [Example 428, 6-(3-chloro-4-hydroxy-5-methoxyphenyl)-4-(4-(pyrrolidin-1-ylmethyl)piperidin-1-yl)quinoline-3-carbonitrile]: the IC50 in experiment [1] was 0.0037 µM; in experiment [2] it was 13 µM; in experiment [3], 7.6 µM; in experiment [4], 2.6 µM.
In the same order, the values of `CN1CCN(C(=O)CNc2c(C(=O)C3CC3)cnc3ccc(-c4cc(F)c(O)c(Cl)c4)cc23)CC1` [Example 390, 2-(6-(3-chloro-5-fluoro-4-hydroxyphenyl)-3-(cyclopropanecarbonyl)quinolin-4-ylamino)-1-(4-methylpiperazin-1-yl)ethanone] are 0.025 µM, 10 µM, 2 µM and 2.7 µM.
As for `CN(C)Cc1ccc(Nc2c(S(C)(=O)=O)cnc3ccc(-c4ccc(O)c(Cl)c4)cc23)cc1` [Example 411, 2-chloro-4-(4-(4-((dimethylamino)methyl)phenylamino)-3-(methylsulfonyl)quinolin-6-yl)phenol], the IC50 turned out to be 0.0091 µM in experiment [1], 0.63 µM in experiment [2], 0.29 µM in experiment [3] and 0.37 µM in experiment [4].
The corresponding values for `N#Cc1cnc2ccc(-c3ccc(O)c(Cl)c3)cc2c1N1CCC(CN2CCCC2)CC1` [Example 433, 6-(3-chloro-4-hydroxyphenyl)-4-(4-(pyrrolidin-1-ylmethyl)piperidin-1-yl)quinoline-3-carbonitrile] are 0.043 µM, 3.7 µM, 0.54 µM and 0.7 µM.
In the same order, the values of `COc1cc(-c2ccc3ncc(S(C)(=O)=O)c(N4CCC(CN5CCCC5)CC4)c3c2)cc(Cl)c1O` [Example 412, 2-chloro-6-methoxy-4-(3-(methylsulfonyl)-4-(4-(pyrrolidin-1-ylmethyl)piperidin-1-yl)quinolin-6-yl)phenol] are 0.002 µM, 2.5 µM, 1.4 µM and 0.58 µM.
The corresponding values for `CN(C)CC(=O)N1CCN(c2c(C(=O)C3CC3)cnc3ccc(-c4ccc(O)c(Cl)c4)cc23)CC1` [Example 441, 1-(4-(6-(3-chloro-4-hydroxyphenyl)-3-(cyclopropanecarbonyl)quinolin-4-yl)piperazin-1-yl)-2-(dimethylamino)ethanone] are 0.004 µM, 46 µM, 0.63 µM and 0.54 µM.
For `CN(C)Cc1ccc(Nc2c(C(=O)C3CC3)cnc3ccc(-c4cc(Cl)c(O)c(Cl)c4)cc23)nc1` [Example 417, cyclopropyl(6-(3,5-dichloro-4-hydroxyphenyl)-4-(5-((dimethylamino)methyl)pyridin-2-ylamino)quinolin-3-yl)methanone], the IC50 stood at 0.0099 µM in experiment [1], 22 µM in experiment [2], 1.7 µM in experiment [3] and 1.8 µM in experiment [4].
The corresponding values for `CN(C)CCNC(=O)c1ccc(-c2c(C(=O)C3CC3)cnc3ccc(-c4cc(Cl)c(O)c(Cl)c4)cc23)cc1` [Example 451] are 0.0025 µM, 17 µM, 0.68 µM and 3.8 µM.
In the same order, the values of `O=C(c1cnc2ccc(-c3cc(Cl)c(O)c(Cl)c3)cc2c1-c1ccc(NCCN2CCOCC2)nc1)C1CC1` [Example 450] are 0.018 µM, 12 µM, 1.8 µM and 4.6 µM.
In the same order, the values of `CN(C)CC1CCN(c2c(C(=O)C3CC3)cnc3ccc(-c4ccc(O)c(C(F)(F)F)c4)cc23)CC1` [Example 454] are 0.014 µM, 5.3 µM, 4 µM and 1.3 µM.
Consider `CN(C)CC(=O)N1CC2CC1CN2c1c(C(=O)C2CC2)cnc2ccc(-c3cc(F)c(O)c(Cl)c3)cc12` (centres unmarked) [Example 455], for which the IC50 in experiment [1] was 0.069 µM; in experiment [2], 60 µM; in experiment [3], 12 µM; in experiment [4], 37 µM.
In the case of `COc1cc(-c2ccc3ncc(C(=O)C4CC4)c(Nc4ccc(CN5CCN(C)CC5)cc4)c3c2)ccc1O` [Example 405, cyclopropyl(6-(4-hydroxy-3-methoxyphenyl)-4-(4-((4-methylpiperazin-1-yl)methyl)phenylamino)quinolin-3-yl)methanone], the half-inhibitory concentration (IC50) in experiment [1] turned out to be 0.017 µM; in experiment [2], 3.5 µM; in experiment [3], 0.76 µM; in experiment [4] it was 0.8 µM.
In the same order, the values of `CC(=O)c1cnc2ccc(-c3cnc(C#N)nc3)cc2c1Nc1ccc(CN2CCCC2)cc1` [Example 413, 5-(3-acetyl-4-(4-(pyrrolidin-1-ylmethyl)phenylamino)quinolin-6-yl)pyrimidine-2-carbonitrile] are 0.0029 µM, 1.2 µM, 0.35 µM and 1.7 µM.
Regarding `CN(C)CC(=O)N1CCN(c2c(C(=O)C3CC3)cnc3ccc(-c4cc(F)c(O)c(Cl)c4)cc23)CC1` [Example 442, 1-(4-(6-(3-chloro-5-fluoro-4-hydroxyphenyl)-3-(cyclopropanecarbonyl)quinolin-4-yl)piperazin-1-yl)-2-(dimethylamino)ethanone], the IC50 came out at 0.0035 µM in experiment [1], 5.5 µM in experiment [2], 0.74 µM in experiment [3] and 1.5 µM in experiment [4].
The corresponding values for `COc1cc(-c2ccc3ncc(C(=O)C4CC4)c(-c4ccc(CN5CCCC5)cc4)c3c2)cc(Cl)c1O` [Example 436, (6-(3-chloro-4-hydroxy-5-methoxyphenyl)-4-(4-(pyrrolidin-1-ylmethyl)phenyl)quinolin-3-yl)(cyclopropyl)methanone] are 0.014 µM, 4.9 µM, 0.63 µM and 0.63 µM.
With `CN(C)Cc1ccc(-c2c(C(=O)C3CC3)cnc3ccc(-c4cc(Cl)c(O)c(Cl)c4)cc23)cc1` [Example 431, cyclopropyl(6-(3,5-dichloro-4-hydroxyphenyl)-4-(4-((dimethylamino)methyl)phenyl)quinolin-3-yl)methanone], the IC50 in experiment [1] amounted to 0.0039 µM; in experiment [2], 7.5 µM; in experiment [3] it was 0.97 µM; in experiment [4], 0.59 µM.
In the case of `COc1cc(-c2ccc3ncc(C(C)=O)c(Nc4ccc(CN(C)C)cc4)c3c2)cc(Cl)c1O` [Example 391, 1-(6-(3-chloro-4-hydroxy-5-methoxyphenyl)-4-(4-((dimethylamino)methyl)phenylamino)quinolin-3-yl)ethanone], the half-inhibitory concentration (IC50) worked out at 0.0037 µM in experiment [1], 4.2 µM in experiment [2], 0.12 µM in experiment [3] and 1 µM in experiment [4].
The corresponding values for `CS(=O)(=O)c1cnc2ccc(-c3ccc(O)c(Cl)c3)cc2c1N1CCC(CN2CCCC2)CC1` [Example 408, 2-chloro-4-(3-(methylsulfonyl)-4-(4-(pyrrolidin-1-ylmethyl)piperidin-1-yl)quinolin-6-yl)phenol] are 0.009 µM, 9.5 µM, 8.2 µM and 3.2 µM.
With `O=C(c1cnc2ccc(-c3cc(Cl)c(O)c(Cl)c3)cc2c1-c1ccc(N2CCNCC2)nc1)C1CC1` [Example 459], the IC50 in experiment [1] is 0.0091 µM; in experiment [2], 10 µM; in experiment [3], 0.83 µM; in experiment [4], 1.9 µM.
Consider `CN1CCCC1c1ccc(Nc2c(C(=O)C3CC3)cnc3ccc(-c4cc(Cl)c(O)c(Cl)c4)cc23)nc1` (centres unmarked) [Example 445], for which the IC50 came to 0.022 µM in experiment [1], 10 µM in experiment [2], 7.5 µM in experiment [3] and 4.1 µM in experiment [4].
In the case of `CN(C)Cc1ccc(Nc2c(C(=O)C3CC3)cnc3ccc(-c4cc(F)c(O)c(Cl)c4)cc23)nc1` [Example 435, (6-(3-chloro-5-fluoro-4-hydroxyphenyl)-4-(5-((dimethylamino)methyl)pyridin-2-ylamino)quinolin-3-yl)(cyclopropyl)methanone], the IC50 in experiment [1] was 0.049 µM; in experiment [2] it was 12 µM; in experiment [3], 2.7 µM; in experiment [4] it was 2.8 µM.
